Literature values, collected in patent US20260130395A1, “Water Dispersible Botanical Compositions” (Aquila Black Limited, priority 2021, published 2026).

Biological target: T1, 5-HT3 serotonin receptor (Homo sapiens, UniProt P46098)
T1 sequence (P46098 24-478): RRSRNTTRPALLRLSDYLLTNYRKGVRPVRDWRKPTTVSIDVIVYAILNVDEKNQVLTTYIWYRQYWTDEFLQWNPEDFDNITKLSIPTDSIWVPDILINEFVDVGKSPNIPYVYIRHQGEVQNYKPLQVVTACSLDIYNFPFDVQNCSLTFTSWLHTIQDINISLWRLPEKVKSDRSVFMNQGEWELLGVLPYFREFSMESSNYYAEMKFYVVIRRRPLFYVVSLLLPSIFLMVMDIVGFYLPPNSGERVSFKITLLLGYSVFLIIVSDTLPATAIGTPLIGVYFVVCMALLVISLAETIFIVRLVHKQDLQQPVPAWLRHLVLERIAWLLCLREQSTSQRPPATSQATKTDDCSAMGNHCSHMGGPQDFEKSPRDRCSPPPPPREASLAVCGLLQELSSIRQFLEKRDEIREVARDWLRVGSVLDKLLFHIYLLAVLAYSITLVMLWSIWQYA
Conditions: Nebrisi et al. 2020, Front. Pharmacol. 11:1274; cited from earlier work

COc1cc(CNC(=O)CCCC/C=C/C(C)C)ccc1O [capsaicin]
mode of action at the 5-HT3 serotonin receptor: negative allosteric modulator
